The subject of this experiment is phosphorylated ERK1/2 (MAPK pathway) in HKGS-activated HEKa cells. Put plainly: Reversal of EGFR inhibitor-mediated pERK inhibition in HKGS-activated HEKa cells, Western blot. Format: cell-based, human. Conditions: HKGS plus erlotinib 10 μM, two hours. On the technique in general: A western blot detects proteins with antibodies after separation by electrophoresis.

Method: Primary HEKa, isolated from adult skin of a single donor and cryopreserved at the end of primary culture (Gibco catalog number C0055C, Thermo Fisher Scientific, Waltham, MA), were cultured in T25 flasks at 37° C., 5% CO2 in growth medium (Epilife™ CF Kit, Gibco) supplemented with 60 μM calcium (Gibco) and HKGS (Gibco). After at least three passages, cells were harvested with trypsin when flask reached 70-80% confluence, and seeded in 10 cm culture dishes (250,000 cells/dish) in 9 ml of growth medium overnight. To analyze the effect of HKGS or a BRAF inhibitor on pERK, cells were starved for 2.5 hours in 5 mL of starvation medium without HKGS, and then individual plates were incubated for two hours with DMSO 0.1%, HKGS, vemurafenib 0.3 μM (0.146 μg/mL), or LUT014 0.3 μM (0.158 μg/mL). […] Cells were harvested with 1 ml cold PBS containing EDTA-free, phosphatase inhibitor cocktail (MilliporeSigma, Burlington, MA) using a cell scraper. […] The signals of phosphorylated ERK1/2 and total ERK2 were quantified using ImageJ software and the phosphorylated ERK1/2/total ERK2 ratio was calculated. For the quantification, equal sized rectangles were drawn around the bands of the phosphorylated ERK1/2 and the total ERK2 and the pixels in each rectangle were measured.

Turning to `C#Cc1cccc(Nc2ncnc3cc(OCCOC)c(OCCOC)cc23)c1` [erlotinib, reference compound], the “HKGS stimulation of the MAPK pathway (pERK)” value is on record as “partially inhibited”.

Values taken from patent US20230321106A1, “USE OF TOPICAL BRAF INHIBITOR COMPOSITIONS FOR TREATMENT OF EPIDERMAL GROWTH FACTOR RECEPTOR DOWNSTREAM EFFECTORS - INDUCED CUTANEOUS REACTIONS” (Lutris Pharma Ltd., priority 2020, published 2023).
